Test system: Huh-7 cells containing the self-replicating, subgenomic HCV replicon
Experiment: HCV replicon assay (luciferase reporter, 72 h)
Type: cell-based
Conditions: Hepatitis C virus, Huh-7, 72 h, read-out: HCV Replicon Activity (EC50)
Protocol: Huh-7 cells containing the self-replicating, subgenomic HCV replicon with a stable luciferase (LUC) reporter were cultured in Dulbecco's modified Eagle's medium (DMEM) containing 2 mM L-glutamine and supplemented with 10% heat-inactivated fetal bovine serum (FBS), 1% penicillin-streptomyocin, 1% nonessential amino acids, and 0.5 mg/ml G418.
On the first day, 5,000 HCV replicon cells were plated per well in a 96-well plate. On the following day, test compounds were solubilized in 100% DMSO to 100× the desired final testing concentration. Each compound was then serially diluted (1:3) up to 9 different concentrations. Compounds in 100% DMSO are reduced to 10% DMSO by diluting 1:10 in cell culture media. The compounds were diluted to 10% DMSO with cell culture media, which were used to dose the HCV replicon cells in 96-well format. The final DMSO concentration was 1%. The HCV replicon cells were incubated at 37° C. for 72 hours. At 72 hours, cells were processed when the cells are still subconfluent. Compounds that reduce the LUC signal are determined by Bright-Glo Luciferase Assay (Promega, Madison, Wis.). % Inhibition was determined for each compound concentration in relation to the control cells (untreated HCV replicon) to calculate the EC50.

Structure (SMILES) | EC50
COC(=O)[C@H](C)NP(=O)(Oc1ccccc1)O[C@H](C)[C@H]1O[C@@H](n2cnc3c(N)ncnc32)[C@H](O)[C@@H]1O (stereo partly drawn) | < 30 µM
COC(=O)[C@H](C)NP(=O)(Oc1ccccc1)O[C@@H](C)[C@H]1O[C@@H](n2cnc3c(N)ncnc32)[C@](C)(O)[C@@H]1O (stereo partly drawn) | < 1000 µM
CCOC(=O)[C@H](C)NP(=O)(Oc1ccccc1)O[C@@H](C)[C@H]1O[C@@H](n2cnc3c(N)ncnc32)[C@H](O)[C@@H]1O (stereo partly drawn) | < 30 µM
COC(=O)[C@H](C)N[P@@](=O)(Oc1ccccc1)O[C@@H](C)[C@H]1O[C@@H](n2cnc3c(N)ncnc32)[C@H](O)[C@@H]1O | < 5 µM
COC(=O)[C@H](C)N[P@](=O)(Oc1ccccc1)O[C@@H](C)[C@H]1O[C@@H](n2cnc3c(N)ncnc32)[C@H](O)[C@@H]1O | < 5 µM
COC(=O)[C@H](C)NP(=O)(Oc1ccccc1)O[C@@H](C)[C@H]1O[C@@H](n2ccc(N)nc2=O)C(F)(F)[C@@H]1O (mixture of isomers) [C5, 2′-Deoxy-2′,2′-difluoro-5′(S)—C-methylcytidine 5′-[phenyl(methoxy-L-alaninyl)]phosphate] | < 1 µM
COC(=O)[C@H](C)NP(=O)(Oc1ccccc1)OC(C)[C@H]1O[C@@H](n2ccc(N)nc2=O)[C@@H](F)[C@@H]1O (mixture of isomers) [C9, 2′-deoxy-2′-C-β-fluoro-5′(R/S)—C-methylcytidine-5′-[phenyl-(methoxy-L-alaninyl)]phosphate] | < 100 µM
CC(C)OC(=O)[C@H](C)NP(=O)(Oc1cccc2ccccc12)OC(C)[C@H]1O[C@@H](n2ccc(N)nc2=O)[C@@H](C)[C@@H]1O (mixture of isomers) [C10, 2′-deoxy-2′-C-β-methyl-5′(R/S)—C-methylcytidine 5′-[1-naphthyl (isopropoxy-L-alaninyl)]phosphate] | < 30 µM
COC(=O)C(C)NP(=O)(Oc1ccccc1)OC(C)[C@H]1O[C@@H](n2ccc(=O)[nH]c2=O)C(C)C1O (mixture of isomers) [D7] | < 30 µM
C[C@H](NP(=O)(Oc1ccc(F)cc1)O[C@@H](C)[C@H]1O[C@@H](n2cnc3c(N)ncnc32)[C@H](O)[C@@H]1O)C(=O)OC1CCCCC1 (stereo in doubt) [A31] | < 1 µM
C[C@H](NP(=O)(Oc1cccc2ncccc12)O[C@@H](C)[C@H]1O[C@@H](n2cnc3c(N)ncnc32)[C@H](O)[C@@H]1O)C(=O)OC1CCCCC1 (stereo in doubt) [A35] | < 30 µM
CC(C)OC(=O)[C@H](C)N[P@](=O)(Oc1cccc2ccccc12)O[C@@H](C)[C@H]1O[C@@H](n2cnc3c(=O)[nH]cnc32)[C@H](O)[C@@H]1O (stereo in doubt) [B5, 5′(S)—C-methylinosine 5′-[1-naphthyl(isopropoxy-L-alaninyl)]phosphate] | < 100 µM
COC(=O)C(C)NP(=O)(Oc1ccccc1)OC(C)[C@H]1O[C@@H](n2ccc(=O)[nH]c2=O)C(F)(F)C1O (stereo in doubt) [D4, 2′-Deoxy-2′,2′-difluoro-5′(S)—C-methyluridine 5′-[phenyl(methoxy-L-alaninyl)]phosphate] | < 30 µM
C[C@H](NP(=O)(Oc1cccc2ccccc12)O[C@@H](C)[C@H]1O[C@@H](n2cnc3c(N)ncnc32)[C@H](O)[C@@H]1O)C(=O)OC1CCCCC1 (stereo partly drawn) [A1, 5′(S)—C-methyladenosine 5′-[1-naphthyl(cyclohexoxy-L-alaninyl)]phosphate] | < 1 µM
C[C@H](NP(=O)(Oc1cccc2ccccc12)O[C@@H](C)[C@H]1O[C@@H](n2cnc3c(N)ncnc32)[C@H](O)[C@@H]1O)C(=O)OCC(C)(C)C (stereo partly drawn) [A2, 5′(S)—C-methyladenosine 5′-[1-naphthyl(neopentoxy-L-alaninyl)]phosphate] | < 1 µM
C[C@H](NP(=O)(Oc1cccc2ccccc12)O[C@@H](C)[C@H]1O[C@@H](n2cnc3c(N)ncnc32)[C@@H]2OC(=O)O[C@@H]21)C(=O)OC1CCCCC1 (stereo partly drawn) [A3, 2′,3′-O-carbonyl-5′(S)—C-methyladenosine 5′-[1-naphthyl(cyclohexoxy-L-alaninyl)]phosphate] | < 1 µM
C[C@H](NP(=O)(Oc1cccc2ccccc12)O[C@@H](C)[C@H]1O[C@@H](n2cnc3c(N)ncnc32)[C@@H]2OC(=O)O[C@@H]21)C(=O)OCC(C)(C)C (stereo partly drawn) [A4, 2′,3′-O-carbonyl-5′(S)—C-methyladenosine 5′-[1-naphthyl(neopentoxy-L-alaninyl)]phosphate] | < 1 µM
COC(=O)Nc1ncnc2c1ncn2[C@@H]1O[C@H]([C@H](C)OP(=O)(N[C@@H](C)C(=O)OC2CCCCC2)Oc2cccc3ccccc23)[C@H]2OC(=O)O[C@H]21 (stereo partly drawn) [A5, 2′,3′-O-carbonyl-N6-methoxycarbonyl-5′(S)—C-methyladenosine 5′-[1-naphthyl(cyclohexoxy-L-alaninyl)]phosphate] | < 30 µM
COC(=O)Nc1ncnc2c1ncn2[C@@H]1O[C@H]([C@H](C)OP(=O)(N[C@@H](C)C(=O)OC2CCCCC2)Oc2cccc3ccccc23)[C@@H](O)[C@H]1O (stereo partly drawn) [A6, N6-methoxycarbonyl-5′(S)—C-methyladenosine 5′-[1-naphthyl(cyclohexoxy-L-alaninyl)]phosphate] | < 30 µM
COC(=O)Nc1ncnc2c1ncn2[C@@H]1O[C@H]([C@H](C)OP(=O)(N[C@@H](C)C(=O)OCC(C)(C)C)Oc2cccc3ccccc23)[C@H]2OC(=O)O[C@H]21 (stereo partly drawn) [A7, 2′,3′-O-carbonyl-N6-methoxycarbonyl-5′(S)—C-methyladenosine 5′-[1-naphthyl(neopentoxy-L-alaninyl)]phosphate] | < 30 µM
CC(C)OC(=O)[C@H](C)NP(=O)(Oc1ccccc1)O[C@@H](C)[C@H]1O[C@@H](n2cnc3c(N)ncnc32)[C@H](O)[C@@H]1O (stereo partly drawn) [A8, 5′(S)—C-methyladenosine 5′-[phenyl(isopropoxy-L-alaninyl)]phosphate] | < 1 µM
CC(C)OC(=O)[C@H](C)NP(=O)(Oc1ccccc1)O[C@@H](C)[C@H]1O[C@@H](n2cnc3c(N)ncnc32)[C@@H]2OC(=O)O[C@@H]21 (stereo partly drawn) [A9, 2′,3′-carbonyl-5′(S)—C-methyladenosine 5′-[phenyl(isopropoxy-L-alaninyl)]phosphate] | < 1 µM
C[C@H](NP(=O)(Oc1ccccc1)O[C@@H](C)[C@H]1O[C@@H](n2cnc3c(N)ncnc32)[C@H](O)[C@@H]1O)C(=O)OC1CCCCC1 (stereo partly drawn) [A10, 5′(S)—C-methyladenosine 5′-[phenyl(cyclohexoxy-L-alaninyl)]phosphate] | < 1 µM
C[C@H](N[P@@](=O)(Oc1ccccc1)O[C@@H](C)[C@H]1O[C@@H](n2cnc3c(N)ncnc32)[C@H](O)[C@@H]1O)C(=O)OC1CCCCC1 [A10a, 5′(S)—C-methyladenosine 5′(S)-[phenyl(cyclohexoxy-L-alaninyl)]phosphate] | < 1 µM
C[C@H](N[P@](=O)(Oc1ccccc1)O[C@@H](C)[C@H]1O[C@@H](n2cnc3c(N)ncnc32)[C@H](O)[C@@H]1O)C(=O)OC1CCCCC1 [A10b, 5′(S)—C-methyladenosine 5′(R)-[phenyl(cyclohexoxy-L-alaninyl)]phosphate] | < 1 µM
C[C@H](NP(=O)(Oc1ccccc1)O[C@@H](C)[C@H]1O[C@@H](n2cnc3c(N)ncnc32)[C@H](O)[C@@H]1O)C(=O)OCC(C)(C)C (stereo partly drawn) [A11, 5′(S)—C-methyladenosine 5′-[phenyl(neopentoxy-L-alaninyl)]phosphate] | < 1 µM
C[C@H](NP(=O)(Oc1ccccc1)O[C@@H](C)[C@H]1O[C@@H](n2cnc3c(N)ncnc32)[C@@H]2OC(=O)O[C@@H]21)C(=O)OCC(C)(C)C (stereo partly drawn) [A12, 2′,3′-O-carbonyl-5′(S)—C-methyladenosine 5′-[phenyl(neopentoxy-L-alaninyl)]phosphate] | < 1 µM
C[C@H](NP(=O)(Oc1ccccc1)O[C@@H](C)[C@H]1O[C@@H](n2cnc3c(N)ncnc32)[C@@H]2OC(=O)O[C@@H]21)C(=O)OC1CCCCC1 (stereo partly drawn) [A13, 2′,3′-O-carbonyl-5′(S)—C-methyladenosine 5′-[phenyl(cyclohexoxy-L-alaninyl)]phosphate] | < 1 µM

Same assay, conditions: Hepatitis C virus; Table 9; Huh-7 HCV replicon cells, luciferase, 72 hours; read-out: HCV Replicon Activity (EC50)

Structure (SMILES) | EC50
CC(O)[C@H]1O[C@@H](n2ccc(N)nc2=O)[C@@H](F)[C@@H]1O (stereo partly drawn) | 5 to 30 µM
C[C@@H](O)[C@H]1O[C@@H](n2ccc(N)nc2=O)C(F)(F)[C@@H]1O | < 5 µM
C[C@@H](O)[C@H]1O[C@@H](n2cnc3c(N)ncnc32)[C@](C)(O)[C@@H]1O | 5 to 30 µM
C[C@H](O)[C@H]1O[C@@H](n2ccc(N)nc2=O)[C@@H](O)[C@@H]1O | 30 to 200 µM
CC(O)[C@H]1O[C@@H](n2cnc3c(=O)[nH]c(N)nc32)[C@H](O)[C@@H]1O (stereo partly drawn) | 30 to 200 µM
CC(OC(=O)c1ccccc1)[C@H]1O[C@@H](n2ccc(=O)[nH]c2=O)[C@](C)(OC(=O)c2ccccc2)[C@@H]1OC(=O)c1ccccc1 (stereo partly drawn) | 5 to 30 µM
C[C@H](O)[C@H]1O[C@@H](n2ccc(N)nc2=O)C(F)(F)[C@@H]1O | < 5 µM
C[C@H](O)[C@H]1O[C@@H](n2ccc(N)nc2=O)[C@H](F)[C@@H]1O | 5 to 30 µM
CC(=O)Nc1ccn([C@@H]2O[C@H]([C@H](C)OC(C)=O)[C@@H](OC(C)=O)C2(F)F)c(=O)n1 | < 5 µM
CCC(=O)O[C@@H](C)[C@H]1O[C@@H](n2ccc(N)nc2=O)C(F)(F)[C@@H]1O | < 5 µM
CCC(=O)O[C@@H](C)[C@H]1O[C@@H](n2ccc(N)nc2=O)C(F)(F)[C@@H]1OC(=O)CC | < 5 µM
CC(=O)O[C@@H](C)[C@H]1O[C@@H](n2ccc(N)nc2=O)C(F)(F)[C@@H]1O | < 5 µM
CC(=O)O[C@@H](C)[C@H]1O[C@@H](n2ccc(N)nc2=O)C(F)(F)[C@@H]1OC(C)=O | < 5 µM
C[C@@H](O)[C@H]1O[C@@H](n2ccc(N)nc2=O)[C@@H](O)[C@@H]1O | < 5 µM

Reference: patent publication US20120070411A1, “SUBSTITUTED NUCLEOTIDE ANALOGS” (Alios BioPharma, Inc., priority 2010, published 2012)
